Consider 4 compounds from patent US20060099161A1, “Skin preparations for external use” (priority 2002, published 2006).

A short description of series [1]: Visual evaluation of discoloration of powder lotion-type antiperspirant lotions. In kind it is physicochemical. On the procedure: Recipes shown in Table 1-1 and Table 1-2 were used to prepare powder lotion-type antiperspirant lotions and the degree of discoloration was evaluated visually. For Comparative examples, a recipe containing no trisodium ethylenediaminehydroxyethyl triacetate and a recipe containing a chelating agent EDTA-3Na.2H2O instead of trisodium ethylenediaminehydroxyethyl triacetate were investigated. The degree of discoloration was evaluated by giving ◯ to those that are within the acceptable range for skin treatment composition, and × to those that are outside of this range.

Series [2] in a line: Staining of clothing after application, sunlight exposure and washing (visual observation). In kind it is physicochemical. On the procedure:
Recipes shown in Table 3-1 and Table 3-2 were used to prepare powder lotion-type antiperspirant lotions and a prescribed amount (4 micrograms/cm^2) is applied on clothing. The clothing was exposed to sunlight (10 minutes) and washed with common laundry detergent in a washing machine; the degree of staining was then evaluated by visual observation. For Comparative examples, recipes not containing polyoxyethylene polyoxypropylene 2-decyltetradecyl ether (20-28 E.O.) (10-16 P.O.) and recipes containing polyoxyethylene (E.O. 60) were investigated. The degree of staining was evaluated by giving ◯ to those that are within the acceptable range for skin treatment compositions, and × to those that are outside of this range.

Regarding `O=C([O-])CN(CCN(CC(=O)[O-])CC(=O)O)CC(=O)[O-].[Na+].[Na+].[Na+]` [EDTA-3Na], the “anti-discoloration effect of the ingredient in skin treatment compositions containing anti-bacterial zeolite” value in series [1] is “do not have the anti-discoloration effect”.

As to `O=C([O-])CN(CCO)CCN(CC(=O)[O-])CC(=O)[O-].[Na+].[Na+].[Na+]` [trisalt ethylenediaminehydroxyethyl triacetate], the “anti-discoloration effect of the ingredient in skin treatment compositions containing anti-bacterial zeolite” value in series [1] is “acts as an anti-discoloration agent”. Take “polyoxyethylene (E.O. 60) hydrogenated castor oil”: the “anti-staining effect of the ingredient in skin treatment compositions containing anti-bacterial zeolite” value in series [2] is reported as “do not have an anti-staining effect”. Same read-out and setting: then “polyoxyethylene polyoxypropylene 2-decyltetradecyl ether (20-28 E.O.) (10-16 P.O.)”, with “acts as an anti-staining agent”.
